From PubChem BioAssay (NCI)
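Step 1: Grow cells in 96-well plates. Step 2: Expose to compound for 48 hours at 5 concentrations. Step 3: Interpolate endpoints linearly; if unreached, use highest concentration. Abbreviation: GI50, concentration required for 50% inhibition of growth. The concentration for full growth arrest is given as TGI.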

Legend:
Assay in all cases: NCI anticancer screen, dose series, 48 h
DMS 273 small cell lung = test system: DMS 273 small cell lung
HOP-18 NSCLC = test system: HOP-18 NSCLC
UACC-257 melanoma = test system: UACC-257 melanoma
U251 CNS = test system: U251 CNS
HCT-15 colon = test system: HCT-15 colon
IGROV1 ovarian = test system: IGROV1 ovarian
EKVX NSCLC = test system: EKVX NSCLC
MALME-3M melanoma = test system: MALME-3M melanoma
K-562 leukemia = test system: K-562 leukemia
UACC-62 melanoma = test system: UACC-62 melanoma
SNB-78 CNS = test system: SNB-78 CNS
DMS 114 small cell lung = test system: DMS 114 small cell lung
NCI-H460 lung = test system: NCI-H460 lung
HCT-116 colon = test system: HCT-116 colon
MOLT-4 leukemia = test system: MOLT-4 leukemia
DLD-1 colon = test system: DLD-1 colon
UO-31 renal = test system: UO-31 renal
M19-MEL melanoma = test system: M19-MEL melanoma
KM20L2 colon = test system: KM20L2 colon
LXFL 529 NSCLC = test system: LXFL 529 NSCLC
M14 melanoma = test system: M14 melanoma
COLO 205 colon = test system: COLO 205 colon
OVCAR-8 ovarian = test system: OVCAR-8 ovarian
SK-MEL-5 melanoma = test system: SK-MEL-5 melanoma
NCI-H226 lung = test system: NCI-H226 lung
NCI-H522 lung = test system: NCI-H522 lung
CCRF-CEM leukemia = test system: CCRF-CEM leukemia
OVCAR-5 ovarian = test system: OVCAR-5 ovarian
NCI-H23 lung = test system: NCI-H23 lung
786-0 renal = test system: 786-0 renal
SN12C renal = test system: SN12C renal
A549 NSCLC = test system: A549 NSCLC
A498 renal = test system: A498 renal
HOP-92 NSCLC = test system: HOP-92 NSCLC
HCC-2998 colon = test system: HCC-2998 colon
KM12 colon = test system: KM12 colon
OVCAR-4 ovarian = test system: OVCAR-4 ovarian
SK-OV-3 ovarian = test system: SK-OV-3 ovarian
SF-295 CNS = test system: SF-295 CNS
SNB-19 CNS = test system: SNB-19 CNS
SW-620 colon = test system: SW-620 colon
SF-268 CNS = test system: SF-268 CNS
HOP-62 NSCLC = test system: HOP-62 NSCLC
SNB-75 CNS = test system: SNB-75 CNS
XF 498 CNS = test system: XF 498 CNS
TK-10 renal = test system: TK-10 renal
OVCAR-3 ovarian = test system: OVCAR-3 ovarian
LOX IMVI melanoma = test system: LOX IMVI melanoma
SR leukemia = test system: SR leukemia
SF-539 CNS = test system: SF-539 CNS
SK-MEL-2 melanoma = test system: SK-MEL-2 melanoma
HT29 colon = test system: HT29 colon
RXF 393 renal = test system: RXF 393 renal
SK-MEL-28 melanoma = test system: SK-MEL-28 melanoma
ACHN renal = test system: ACHN renal
HL-60(TB) leukemia = test system: HL-60(TB) leukemia
RPMI-8226 leukemia = test system: RPMI-8226 leukemia

`CCC[CH2][Sn]([CH2]CCC)([O]C(=O)Cc1ccc(F)cc1)[O]C(=O)Cc1ccc(F)cc1` gave a GI50 (DMS 273 small cell lung) of 1040 nM, a TGI (DMS 273 small cell lung) of 2220 nM and a GI50 (HOP-18 NSCLC) of 1670 nM. It also gave a TGI (HOP-18 NSCLC) of 3050 nM, a GI50 (UACC-257 melanoma) of 603 nM and a TGI (UACC-257 melanoma) of 1990 nM. For the same compound, the GI50 (U251 CNS) was 361 nM, the TGI (U251 CNS) was 1540 nM and the GI50 (HCT-15 colon) was 1040 nM. The TGI (HCT-15 colon) was 2230 nM, the GI50 (IGROV1 ovarian) was 1340 nM and the TGI (IGROV1 ovarian) was 2790 nM. The GI50 (EKVX NSCLC) was 777 nM, the TGI (EKVX NSCLC) was 2090 nM and the GI50 (MALME-3M melanoma) was 240 nM. For the same compound, the TGI (MALME-3M melanoma) was 1350 nM, the GI50 (K-562 leukemia) was 53.5 nM and the TGI (K-562 leukemia) was 580 nM. It also gave a GI50 (UACC-62 melanoma) of 629 nM, a TGI (UACC-62 melanoma) of 1890 nM and a GI50 (SNB-78 CNS) of 284 nM. It also gave a TGI (SNB-78 CNS) of 1570 nM, a GI50 (DMS 114 small cell lung) of 140 nM and a TGI (DMS 114 small cell lung) of 393 nM. It also gave a GI50 (NCI-H460 lung) of 2270 nM, a TGI (NCI-H460 lung) of 5850 nM and a GI50 (HCT-116 colon) of 657 nM. For the same compound, the TGI (HCT-116 colon) was 1970 nM, the GI50 (MOLT-4 leukemia) was 124 nM and the TGI (MOLT-4 leukemia) was 796 nM. It also gave a GI50 (DLD-1 colon) of 291 nM, a TGI (DLD-1 colon) of 1420 nM and a GI50 (UO-31 renal) of 1430 nM. For the same compound, the TGI (UO-31 renal) was 2750 nM, the GI50 (M19-MEL melanoma) was 295 nM and the TGI (M19-MEL melanoma) was 1650 nM. For the same compound, the GI50 (KM20L2 colon) was 1880 nM, the TGI (KM20L2 colon) was 4690 nM and the GI50 (LXFL 529 NSCLC) was 47.6 nM. It also gave a TGI (LXFL 529 NSCLC) of 202 nM, a GI50 (M14 melanoma) of 1060 nM and a TGI (M14 melanoma) of 2260 nM. It also gave a GI50 (COLO 205 colon) of 679 nM, a TGI (COLO 205 colon) of 2000 nM and a GI50 (OVCAR-8 ovarian) of 917 nM. For the same compound, the TGI (OVCAR-8 ovarian) was 2130 nM, the GI50 (SK-MEL-5 melanoma) was 1080 nM and the TGI (SK-MEL-5 melanoma) was 2270 nM. It also gave a GI50 (NCI-H226 lung) of 443 nM, a TGI (NCI-H226 lung) of 1850 nM and a GI50 (NCI-H522 lung) of 23.2 nM. For the same compound, the TGI (NCI-H522 lung) was 149 nM, the GI50 (CCRF-CEM leukemia) was 36.2 nM and the TGI (CCRF-CEM leukemia) was 11900 nM. The GI50 (OVCAR-5 ovarian) was 1790 nM, the TGI (OVCAR-5 ovarian) was 3180 nM and the GI50 (NCI-H23 lung) was 176 nM. The TGI (NCI-H23 lung) was 1140 nM, the GI50 (786-0 renal) was 505 nM and the TGI (786-0 renal) was 1720 nM. It also gave a GI50 (SN12C renal) of 856 nM, a TGI (SN12C renal) of 2100 nM and a GI50 (A549 NSCLC) of 7000 nM. It also gave a TGI (A549 NSCLC) of 19900 nM, a GI50 (A498 renal) of 573 nM and a TGI (A498 renal) of 1860 nM. The GI50 (HOP-92 NSCLC) was 1020 nM, the TGI (HOP-92 NSCLC) was 2200 nM and the GI50 (HCC-2998 colon) was 1230 nM. It also gave a TGI (HCC-2998 colon) of 2520 nM, a GI50 (KM12 colon) of 1710 nM and a TGI (KM12 colon) of 4030 nM. It also gave a GI50 (OVCAR-4 ovarian) of 1680 nM, a TGI (OVCAR-4 ovarian) of 3130 nM and a GI50 (SK-OV-3 ovarian) of 2930 nM. It also gave a TGI (SK-OV-3 ovarian) of 7330 nM, a GI50 (SF-295 CNS) of 1130 nM and a TGI (SF-295 CNS) of 2340 nM. It also gave a GI50 (SNB-19 CNS) of 1360 nM, a TGI (SNB-19 CNS) of 2650 nM and a GI50 (SW-620 colon) of 206 nM. The TGI (SW-620 colon) was 1130 nM, the GI50 (SF-268 CNS) was 450 nM and the TGI (SF-268 CNS) was 1750 nM. It also gave a GI50 (HOP-62 NSCLC) of 2380 nM, a TGI (HOP-62 NSCLC) of 4080 nM and a GI50 (SNB-75 CNS) of 705 nM. It also gave a TGI (SNB-75 CNS) of 2100 nM, a GI50 (XF 498 CNS) of 1080 nM and a TGI (XF 498 CNS) of 2290 nM. It also gave a GI50 (TK-10 renal) of 1030 nM, a TGI (TK-10 renal) of 2210 nM and a GI50 (OVCAR-3 ovarian) of 1270 nM. The TGI (OVCAR-3 ovarian) was 2540 nM, the GI50 (LOX IMVI melanoma) was 279 nM and the TGI (LOX IMVI melanoma) was 1270 nM. The GI50 (SR leukemia) was 196 nM, the TGI (SR leukemia) was 1860 nM and the GI50 (SF-539 CNS) was 1060 nM. For the same compound, the TGI (SF-539 CNS) was 2280 nM, the GI50 (SK-MEL-2 melanoma) was 355 nM and the TGI (SK-MEL-2 melanoma) was 1480 nM. The GI50 (HT29 colon) was 1610 nM, the TGI (HT29 colon) was 3680 nM and the GI50 (RXF 393 renal) was 145 nM. It also gave a TGI (RXF 393 renal) of 695 nM, a GI50 (SK-MEL-28 melanoma) of 396 nM and a TGI (SK-MEL-28 melanoma) of 1680 nM. The GI50 (ACHN renal) was 756 nM and the TGI (ACHN renal) was 2010 nM.
In the case of `COc1ccc(-c2cc(=O)c3c(O)c(OC)c(O)c(OC)c3o2)cc1OC`, the TGI (DMS 273 small cell lung) is reported as > 100000 nM, the TGI (HL-60(TB) leukemia) is reported as > 100000 nM and the TGI (HOP-18 NSCLC) is reported as > 100000 nM. For the same compound, the TGI (UACC-257 melanoma) was > 100000 nM, the TGI (U251 CNS) was > 100000 nM and the TGI (HCT-15 colon) was > 100000 nM. For the same compound, the TGI (IGROV1 ovarian) was > 100000 nM, the TGI (EKVX NSCLC) was > 100000 nM and the TGI (MALME-3M melanoma) was > 100000 nM. For the same compound, the TGI (K-562 leukemia) was > 100000 nM, the TGI (UACC-62 melanoma) was > 100000 nM and the TGI (SNB-78 CNS) was > 100000 nM. For the same compound, the TGI (DMS 114 small cell lung) was > 100000 nM, the TGI (HCT-116 colon) was > 100000 nM and the TGI (MOLT-4 leukemia) was > 100000 nM. For the same compound, the TGI (DLD-1 colon) was > 100000 nM, the TGI (UO-31 renal) was > 100000 nM and the TGI (M19-MEL melanoma) was > 100000 nM. The TGI (KM20L2 colon) was > 100000 nM, the TGI (LXFL 529 NSCLC) was > 100000 nM and the TGI (M14 melanoma) was > 100000 nM. The TGI (COLO 205 colon) was > 100000 nM, the TGI (OVCAR-8 ovarian) was > 100000 nM and the TGI (SK-MEL-5 melanoma) was > 100000 nM. For the same compound, the TGI (NCI-H226 lung) was > 100000 nM, the TGI (NCI-H522 lung) was 42800 nM and the TGI (CCRF-CEM leukemia) was > 100000 nM. The TGI (NCI-H23 lung) was > 100000 nM, the TGI (786-0 renal) was > 100000 nM and the TGI (SN12C renal) was > 100000 nM. The TGI (A549 NSCLC) was > 100000 nM, the TGI (A498 renal) was > 100000 nM and the TGI (HOP-92 NSCLC) was > 100000 nM. For the same compound, the TGI (HCC-2998 colon) was > 100000 nM, the TGI (OVCAR-4 ovarian) was > 100000 nM and the TGI (SK-OV-3 ovarian) was > 100000 nM. The TGI (RPMI-8226 leukemia) was > 100000 nM, the TGI (SF-295 CNS) was > 100000 nM and the TGI (SNB-19 CNS) was > 100000 nM. The TGI (SW-620 colon) was > 100000 nM, the TGI (SF-268 CNS) was > 100000 nM and the TGI (HOP-62 NSCLC) was > 100000 nM. For the same compound, the TGI (SNB-75 CNS) was > 100000 nM, the TGI (XF 498 CNS) was > 100000 nM and the TGI (SR leukemia) was > 100000 nM. For the same compound, the TGI (SF-539 CNS) was > 100000 nM, the TGI (HT29 colon) was > 100000 nM and the TGI (RXF 393 renal) was 55600 nM. For the same compound, the TGI (SK-MEL-28 melanoma) was > 100000 nM and the TGI (ACHN renal) was > 100000 nM.
